Results from patent US20190047983A1, “MODIFIED PROCESS FOR THE PREPARATION OF CERITINIB AND AMORPHOUS FORM OF CERITINIB” (NATCO PHARMA LIMITED, priority 2016, published 2019).

Test: Stability of the amorphous form, confirmed by PXRD, DSC and TGA
Type: physicochemical
Conditions: solid amorphous form
Excerpt: According to the present invention, the obtained amorphous form of Ceritinib is stable up to 180 days. The stability of the amorphous form is confirmed by PXRD, DSC and TGA.
FIG. 2: Powder X-ray diffractogram of an amorphous form of ceritinib of 180 days

Compound: Cc1cc(Nc2ncc(Cl)c(Nc3ccccc3S(=O)(=O)C(C)C)n2)c(OC(C)C)cc1C1CCNCC1 [amorphous form of Ceritinib]
- stability towards polymorphic conversion: stable towards polymorphic conversion
- stability of the amorphous form (time for which it is stable) (confirmed by PXRD, DSC and TGA, storage conditions not given): up to 180 days
